This passage reports Kd results from article PMC4769319, “Cohesin Releases DNA through Asymmetric ATPase-Driven Ring Opening” (Molecular Cell, 2016).

The test addresses T1, Smc1/Smc3 heterodimer with Scc1-C (cohesin) (Saccharomyces cerevisiae, UniProt P32908+P47037, P32908:E1158Q, form not given).
T1 construct: N-terminal tags; Sf9 insect cells; fluorescently labelled for MST; with Sister chromatid cohesion protein 1
T1 sequence (P32908 1-1225 E1158Q): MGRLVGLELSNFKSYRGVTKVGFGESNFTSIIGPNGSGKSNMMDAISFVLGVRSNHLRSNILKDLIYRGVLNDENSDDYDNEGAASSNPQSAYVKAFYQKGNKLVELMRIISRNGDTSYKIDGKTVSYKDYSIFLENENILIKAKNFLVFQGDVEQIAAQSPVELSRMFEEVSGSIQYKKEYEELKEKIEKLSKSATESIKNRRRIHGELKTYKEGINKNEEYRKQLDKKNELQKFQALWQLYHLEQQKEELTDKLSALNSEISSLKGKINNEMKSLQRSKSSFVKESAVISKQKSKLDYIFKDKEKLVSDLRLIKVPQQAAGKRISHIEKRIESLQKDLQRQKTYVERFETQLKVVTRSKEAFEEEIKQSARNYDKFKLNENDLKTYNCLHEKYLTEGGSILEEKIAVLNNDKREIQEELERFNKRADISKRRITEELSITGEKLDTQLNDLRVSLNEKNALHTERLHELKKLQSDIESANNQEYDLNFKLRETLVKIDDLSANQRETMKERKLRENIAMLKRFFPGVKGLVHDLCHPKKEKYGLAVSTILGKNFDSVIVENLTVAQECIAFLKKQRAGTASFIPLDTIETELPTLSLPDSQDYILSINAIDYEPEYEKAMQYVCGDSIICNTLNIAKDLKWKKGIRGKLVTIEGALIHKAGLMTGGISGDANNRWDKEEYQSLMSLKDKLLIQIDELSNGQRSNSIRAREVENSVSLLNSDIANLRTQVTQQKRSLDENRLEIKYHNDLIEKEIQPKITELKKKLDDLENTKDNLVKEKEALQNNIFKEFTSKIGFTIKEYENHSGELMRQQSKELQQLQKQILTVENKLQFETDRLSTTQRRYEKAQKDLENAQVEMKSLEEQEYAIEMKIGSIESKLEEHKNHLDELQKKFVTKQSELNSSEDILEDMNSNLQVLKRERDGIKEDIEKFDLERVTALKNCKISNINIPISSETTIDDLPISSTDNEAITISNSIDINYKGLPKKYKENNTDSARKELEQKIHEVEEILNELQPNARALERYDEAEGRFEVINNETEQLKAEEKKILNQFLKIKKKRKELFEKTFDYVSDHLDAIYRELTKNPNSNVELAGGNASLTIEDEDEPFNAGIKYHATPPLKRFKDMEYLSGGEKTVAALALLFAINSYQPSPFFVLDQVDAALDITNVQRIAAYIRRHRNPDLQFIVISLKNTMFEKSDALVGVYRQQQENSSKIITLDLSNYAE
T1 sequence (P47037 1-1230): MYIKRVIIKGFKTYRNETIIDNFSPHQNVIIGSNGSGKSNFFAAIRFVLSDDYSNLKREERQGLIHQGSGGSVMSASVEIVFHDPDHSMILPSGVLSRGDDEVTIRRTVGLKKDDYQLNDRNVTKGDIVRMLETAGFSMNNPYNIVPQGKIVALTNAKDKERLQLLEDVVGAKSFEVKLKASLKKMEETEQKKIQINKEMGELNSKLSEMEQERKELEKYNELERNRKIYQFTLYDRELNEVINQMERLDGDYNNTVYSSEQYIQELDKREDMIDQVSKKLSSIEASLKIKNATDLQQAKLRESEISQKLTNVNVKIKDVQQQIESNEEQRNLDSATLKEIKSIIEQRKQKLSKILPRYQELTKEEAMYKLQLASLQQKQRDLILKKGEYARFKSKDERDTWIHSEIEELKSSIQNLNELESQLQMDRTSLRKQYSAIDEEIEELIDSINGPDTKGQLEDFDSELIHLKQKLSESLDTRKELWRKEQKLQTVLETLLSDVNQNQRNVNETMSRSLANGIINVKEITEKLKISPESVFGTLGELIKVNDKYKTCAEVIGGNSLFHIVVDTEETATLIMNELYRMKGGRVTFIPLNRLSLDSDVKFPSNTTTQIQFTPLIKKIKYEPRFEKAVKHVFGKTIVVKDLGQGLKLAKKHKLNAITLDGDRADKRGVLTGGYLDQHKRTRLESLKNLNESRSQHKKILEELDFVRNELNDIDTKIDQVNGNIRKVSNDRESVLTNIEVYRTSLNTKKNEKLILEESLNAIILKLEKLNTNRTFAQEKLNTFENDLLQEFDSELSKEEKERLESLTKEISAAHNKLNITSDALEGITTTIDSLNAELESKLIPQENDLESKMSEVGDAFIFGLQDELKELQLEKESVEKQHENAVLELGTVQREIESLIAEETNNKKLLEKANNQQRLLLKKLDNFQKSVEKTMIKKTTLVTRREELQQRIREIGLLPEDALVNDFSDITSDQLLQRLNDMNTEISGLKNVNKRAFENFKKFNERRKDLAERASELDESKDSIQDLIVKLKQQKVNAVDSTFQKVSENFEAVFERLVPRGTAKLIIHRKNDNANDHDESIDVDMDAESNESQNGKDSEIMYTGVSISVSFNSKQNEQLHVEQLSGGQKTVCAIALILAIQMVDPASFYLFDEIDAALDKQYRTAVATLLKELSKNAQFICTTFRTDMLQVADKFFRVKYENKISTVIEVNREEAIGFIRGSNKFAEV
T1 sequence (Q12158 1-566 partner): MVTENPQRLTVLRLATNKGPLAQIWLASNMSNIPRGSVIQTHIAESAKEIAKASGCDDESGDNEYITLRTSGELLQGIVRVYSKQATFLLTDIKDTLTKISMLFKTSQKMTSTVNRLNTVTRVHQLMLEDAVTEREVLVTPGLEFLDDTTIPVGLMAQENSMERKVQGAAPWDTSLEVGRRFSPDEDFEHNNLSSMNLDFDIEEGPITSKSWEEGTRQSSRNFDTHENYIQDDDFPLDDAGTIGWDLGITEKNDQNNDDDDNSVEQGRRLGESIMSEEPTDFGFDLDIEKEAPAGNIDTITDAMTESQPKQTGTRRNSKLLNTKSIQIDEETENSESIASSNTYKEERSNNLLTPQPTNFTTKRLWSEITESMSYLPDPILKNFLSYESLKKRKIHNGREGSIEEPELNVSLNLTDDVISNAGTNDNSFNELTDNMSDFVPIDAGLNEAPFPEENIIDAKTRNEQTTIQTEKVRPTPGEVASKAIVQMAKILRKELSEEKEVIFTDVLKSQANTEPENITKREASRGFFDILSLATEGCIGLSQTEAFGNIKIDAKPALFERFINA
The test can be described thus: microscale thermophoresis. Type of test: binding. The note with it: fluorescently labelled protein; Smc1 co-purified with Scc1-C, plus Smc3; read-out: affinity. An excerpt: microscale thermophoresis on Smc1/Smc3 heterodimer with Scc1-C (cohesin) | Smc1 L1129V, D1164E and E1158Q mutants all had wild-type-like affinity to both ATP and ADP | wild-type and mutant cohesin complexes appear to have similar affinities to ADP
A general note: MST reads how a fluorescent partner responds to local heating, with and without ligand.

For `Nc1ncnc2c1ncn2[C@@H]1O[C@H](COP(=O)(O)OP(=O)(O)OP(=O)(O)O)[C@@H](O)[C@H]1O` [ATP], the Kd was 567 ± 289 µM.

Consider `Nc1ncnc2c1ncn2[C@@H]1O[C@H](COP(=O)(O)OP(=O)(O)O)[C@@H](O)[C@H]1O` [ADP], for which the Kd was greater than 1000 µM.
